Results from patent publication US9999619B2, “Piperidin-4-yl azetidine derivatives as JAK1 inhibitors” (Incyte Corporation, priority 2010, dated 2018).

Tests used:
Type in all cases: biochemical
[1] = target: human JAK1 (a.a. 837-1142) (Homo sapiens, UniProt P23458); assay: In vitro JAK kinase assay (HTRF, phosphorylation of a biotinylated peptide), JAK1; conditions: measured at 1 mM ATP
Outline: (§1)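 N-terminal His-tagged catalytic domains, baculovirus-expressed in insect cells, phosphorylated a biotinylated peptide for 1 hr at room temperature. EDTA stop was followed by SA-APC and Eu-Py20 antibody for 40 minutes, with phosphopeptide read by HTRF.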

[2] = target: human JAK1 (a.a. 837-1142); assay: as above; conditions: ratio of JAK2 IC50 to JAK1 IC50, measured at 1 mM ATP
Outline: as §1

Jak2 (a.a. 828-1132) = Jak2 (a.a. 828-1132) (Homo sapiens (Human), UniProt O60674); assay: In vitro JAK kinase assay (HTRF, phosphorylation of a biotinylated peptide), JAK2; conditions: measured at 1 mM ATP
Sequence of Jak2 (a.a. 828-1132) (O60674 828-1132): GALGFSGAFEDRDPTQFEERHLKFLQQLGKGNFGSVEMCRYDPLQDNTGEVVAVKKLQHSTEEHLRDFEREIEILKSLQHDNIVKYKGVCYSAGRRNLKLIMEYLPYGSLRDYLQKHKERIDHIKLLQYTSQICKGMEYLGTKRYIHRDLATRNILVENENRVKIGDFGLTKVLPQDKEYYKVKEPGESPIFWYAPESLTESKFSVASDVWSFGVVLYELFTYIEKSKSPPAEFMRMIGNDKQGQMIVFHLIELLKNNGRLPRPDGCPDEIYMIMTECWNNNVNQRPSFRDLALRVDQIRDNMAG
Outline: as §1

| Structure (SMILES) | IC50 [1] [nM] | IC50 Ratio JAK2/JAK1 [2] | IC50 (Jak2 (a.a. 828-1132)) [nM] |
| --- | --- | --- | --- |
| N#CCC1(n2ccc(-c3ncnc4[nH]ccc34)c2)CN(C2CCN(C(=O)c3cccc(F)c3F)CC2)C1 [Example 276, {1-[1-(2,3-difluorobenzoyl)piperidin-4-yl]-3-[3-(7H-pyrrolo[2,3-d]pyrimidin-4-yl)-1H-pyrrol-1-yl]azetidin-3-yl}acetonitrile] | ≤ 5 | 4.0 | ≤ 10 |
| N#CCC1(n2ccc(-c3ncnc4[nH]ccc34)c2)CN(C2CCN(C(=O)c3cccc(OC(F)(F)F)c3F)CC2)C1 [Example 281, {1-{1-[2-fluoro-3-(trifluoromethoxy)benzoyl]piperidin-4-yl}-3-[3-(7H-pyrrolo[2,3-d]pyrimidin-4-yl)-1H-pyrrol-1-yl]azetidin-3-yl}acetonitrile] | ≤ 5 | 10.0 | 10 to 50 |
| N#CCC1(n2cc(-c3ncnc4[nH]ccc34)cn2)CN(C2CCN(C(=O)c3ccc(-c4cccc5ncccc45)c(F)c3)CC2)C1 [Example 129, {1-[1-(3-fluoro-4-quinolin-5-ylbenzoyl)piperidin-4-yl]-3-[4-(7H-pyrrolo[2,3-d]pyrimidin-4-yl)-1H-pyrazol-1-yl]azetidin-3-yl}acetonitrile] | ≤ 5 | 7.9 | ≤ 10 |
| N#CCC1(n2cc(-c3ncnc4[nH]ccc34)cn2)CN(C2CCN(Cc3cc(F)cc(F)c3)CC2)C1 [Example 215, {1-[1-(3,5-difluorobenzyl)piperidin-4-yl]-3-[4-(7H-pyrrolo[2,3-d]pyrimidin-4-yl)-1H-pyrazol-1-yl]azetidin-3-yl}acetonitrile] | ≤ 5 | 5.7 | 10 to 50 |
| N#CCC1(n2cc(-c3ccnc4[nH]ccc34)cn2)CN(C2CCN(C(=O)Nc3ccc(C#N)cc3Cl)CC2)C1 [Example 313, N-(2-chloro-4-cyanophenyl)-4-{3-(cyanomethyl)-3-[4-(1H-pyrrolo[2,3-b]pyridin-4-yl)-1H-pyrazol-1-yl]azetidin-1-yl}piperidine-1-carboxamide] | ≤ 5 | 14.3 | 10 to 50 |
| CN(C)Cc1cc(C(=O)N2CCC(N3CC(CC#N)(n4cc(-c5ncnc6[nH]ccc56)cn4)C3)CC2)nc(C(F)(F)F)n1 [Example 370, {1-(1-{[6-[(dimethylamino)methyl]-2-(trifluoromethyl)pyrimidin-4-yl]carbonyl}piperidin-4-yl)-3-[4-(7H-pyrrolo[2,3-d]pyrimidin-4-yl)-1H-pyrazol-1-yl]azetidin-3-yl}acetonitrile] | ≤ 5 | 55 | 50 to 100 |
| N#CCC1(n2ccc(-c3ncnc4[nH]ccc34)c2)CN(C2CCN(C(=O)c3c(F)cc(C#N)cc3F)CC2)C1 [Example 265, 4-[(4-{3-(cyanomethyl)-3-[3-(7H-pyrrolo[2,3-d]pyrimidin-4-yl)-1H-pyrrol-1-yl]azetidin-1-yl}piperidin-1-yl)carbonyl]-3,5-difluorobenzonitrile] | 5 to 20 | 6.6 | 50 to 100 |
| N#CCC1(n2cc(-c3ccnc4[nH]ccc34)cn2)CN(C2CCN(C(=O)Nc3ccc(F)cc3C(F)(F)F)CC2)C1 [Example 303, 4-{3-(Cyanomethyl)-3-[4-(1H-pyrrolo[2,3-b]pyridin-4-yl)-1H-pyrazol-1-yl]azetidin-1-yl}-N-[4-fluoro-2-(trifluoromethyl)phenyl]piperidine-1-carboxamide] | ≤ 5 | 19.7 | 50 to 100 |
| N#CCC1(n2ccc(-c3ncnc4[nH]ccc34)c2)CN(C2CCN(C(=O)c3c(F)cccc3F)CC2)C1 [Example 279, {1-[1-(2,6-difluorobenzoyl)piperidin-4-yl]-3-[3-(7H-pyrrolo[2,3-d]pyrimidin-4-yl)-1H-pyrrol-1-yl]azetidin-3-yl}acetonitrile] | ≤ 5 | 4.1 | ≤ 10 |
| N#CCC1(n2cc(-c3ncnc4[nH]ccc34)cn2)CN(C2CCN(Cc3cc4ccccc4nc3Cl)CC2)C1 [Example 214, {1-{1-[(2-chloroquinolin-3-yl)methyl]piperidin-4-yl}-3-[4-(7H-pyrrolo[2,3-d]pyrimidin-4-yl)-1H-pyrazol-1-yl]azetidin-3-yl}acetonitrile] | 5 to 20 | 2.5 | 10 to 50 |
| N#CCC1(n2cc(-c3ncnc4[nH]ccc34)cn2)CN(C2CCN(C(=O)c3cc4c(C(F)(F)F)cccc4s3)CC2)C1 [Example 93, [3-[4-(7H-pyrrolo[2,3-d]pyrimidin-4-yl)-1H-pyrazol-1-yl]-1-(1-{[4-(trifluoromethyl)-1-benzothien-2-yl]carbonyl}piperidin-4-yl)azetidin-3-yl]acetonitrile] | ≤ 5 | 1.5 | ≤ 10 |
| COc1nc(CN2CCC(N3CC(CC#N)(n4cc(-c5ncnc6[nH]ccc56)cn4)C3)CC2)ccc1C#N [Example 224, 6-[(4-{3-(cyanomethyl)-3-[4-(7H-pyrrolo[2,3-d]pyrimidin-4-yl)-1H-pyrazol-1-yl]azetidin-1-yl}piperidin-1-yl)methyl]-2-methoxynicotinonitrile] | 20 to 30 | 2.4 | 50 to 100 |
| N#CCC1(n2cc(-c3c(F)cnc4[nH]ccc34)cn2)CN(C2CCN(C(=O)c3cncc(C(F)(F)F)n3)CC2)C1 [Example 352, [3-[4-(5-Fluoro-1H-pyrrolo[2,3-b]pyridin-4-yl)-1H-pyrazol-1-yl]-1-(1-{[6-(trifluoromethyl)pyrazin-2-yl]carbonyl}piperidin-4-yl)azetidin-3-yl]acetonitrile] | ≤ 5 | 18.8 | 10 to 50 |
| N#CCC1(n2cc(-c3c(F)cnc4[nH]ccc34)cn2)CN(C2CCN(C(=O)c3c(F)cncc3F)CC2)C1 [Example 321, {1-[1-(3,5-difluoroisonicotinoyl)piperidin-4-yl]-3-[4-(5-fluoro-1H-pyrrolo[2,3-b]pyridin-4-yl)-1H-pyrazol-1-yl]azetidin-3-yl}acetonitrile] | ≤ 5 | 3.0 | 10 to 50 |

Further lines, results first:

| IC50 [1] [nM] | IC50 Ratio JAK2/JAK1 [2] | IC50 (Jak2 (a.a. 828-1132)) [nM] | Structure (SMILES) |
| --- | --- | --- | --- |
| 5 to 20 | 3.2 | 10 to 50 | N#CCC1(n2cc(-c3ncnc4[nH]ccc34)cn2)CN(C2CCN(C(=O)c3cccc(C(F)(F)F)c3)CC2)C1 [Example 22, (3-[4-(7H-pyrrolo[2,3-d]pyrimidin-4-yl)-1H-pyrazol-1-yl]-1-{1-[3-(trifluoromethyl)benzoyl]piperidin-4-yl}azetidin-3-yl)acetonitrile] |
| ≤ 5 | 6.5 | ≤ 10 | N#CCC1(n2cc(-c3ncnc4[nH]ccc34)cn2)CN(C2CCN(C(=O)Nc3ccc(Cl)cc3F)CC2)C1 [Example 178, N-(4-chloro-2-fluorophenyl)-4-{3-(cyanomethyl)-3-[4-(7H-pyrrolo[2,3-d]pyrimidin-4-yl)-1H-pyrazol-1-yl]azetidin-1-yl}piperidine-1-carboxamide] |
| 5 to 20 | 6.7 | 50 to 100 | N#CCC1(n2ccc(-c3ncnc4[nH]ccc34)c2)CN(C2CCN(C(=O)Nc3ccccc3C#N)CC2)C1 [Example 287, 4-{3-(cyanomethyl)-3-[3-(7H-pyrrolo[2,3-d]pyrimidin-4-yl)-1H-pyrrol-1-yl]azetidin-1-yl}-N-(2-cyanophenyl)piperidine-1-carboxamide] |
| 5 to 20 | 2.6 | 10 to 50 | N#CCC1(n2cc(-c3ncnc4[nH]ccc34)cn2)CN(C2CCN(C(=O)C3(c4ccc(Cl)cc4)CC3)CC2)C1 [Example 111, {1-(1-{[1-(4-chlorophenyl)cyclopropyl]carbonyl}piperidin-4-yl)-3-[4-(7H-pyrrolo[2,3-d]pyrimidin-4-yl)-1H-pyrazol-1-yl]azetidin-3-yl}acetonitrile] |
| ≤ 5 | 15.0 | 10 to 50 | N#CCC1(n2cc(-c3ncnc4[nH]ccc34)cn2)CN(C2CCN(C(=O)Nc3cscc3Br)CC2)C1 [Example 159, N-(4-bromo-3-thienyl)-4-{3-(cyanomethyl)-3-[4-(7H-pyrrolo[2,3-d]pyrimidin-4-yl)-1H-pyrazol-1-yl]azetidin-1-yl}piperidine-1-carboxamide] |
| ≤ 5 | 6.5 | 10 to 50 | N#CCC1(n2cc(-c3ncnc4[nH]ccc34)cn2)CN(C2CCN(C(=O)c3cc(F)c(F)cc3F)CC2)C1 [Example 48, {3-[4-(7H-pyrrolo[2,3-d]pyrimidin-4-yl)-1H-pyrazol-1-yl]-1-[1-(2,4,5-trifluorobenzoyl)piperidin-4-yl]azetidin-3-yl}acetonitrile] |
| ≤ 5 | 7.1 | ≤ 10 | N#CCC1(n2cc(-c3ncnc4[nH]ccc34)cn2)CN(C2CCN(C(=O)Nc3cc(F)ccc3F)CC2)C1 [Example 174, 4-{3-(cyanomethyl)-3-[4-(7H-pyrrolo[2,3-d]pyrimidin-4-yl)-1H-pyrazol-1-yl]azetidin-1-yl}-N-(2,5-difluorophenyl)piperidine-1-carboxamide] |
| ≤ 5 | 4.4 | 10 to 50 | Cc1ncccc1NC(=O)N1CCC(N2CC(CC#N)(n3cc(-c4ncnc5[nH]ccc45)cn3)C2)CC1 [Example 198, 4-{3-(cyanomethyl)-3-[4-(7H-pyrrolo[2,3-d]pyrimidin-4-yl)-1H-pyrazol-1-yl]azetidin-1-yl}-N-(2-methylpyridin-3-yl)piperidine-1-carboxamide] |
| 5 to 20 | 10.4 | 50 to 100 | N#CCC1(n2cc(-c3ncnc4[nH]ccc34)cn2)CN(C2CCN(C(=O)Nc3cnccc3C(F)(F)F)CC2)C1 [Example 165] |
